# According to US20110124657A1, “METHOD FOR SCREENING OF 5HT7 RECEPTOR LIGANDS BASED ON A NEW PHARMACOPHORE MODEL AND A DESCRIPTOR'S PROFILE FILTER” (LABORATORIOS DEL DR. ESTEVE, S.A., priority 2008, published 2011):
# Like-named read-outs stand apart in the source and are kept apart here.
# Molecular target: T1, Cloned Human Serotonin Receptor, Subtype 7 (h5HT7), expressed in CHO cells (Homo sapiens, UniProt P34969)
# T1 construct: purchased PerkinElmer 6120512; host or cells: CHO cells (membranes coated on FlashPlate)
# T1 sequence (P34969 whole entry): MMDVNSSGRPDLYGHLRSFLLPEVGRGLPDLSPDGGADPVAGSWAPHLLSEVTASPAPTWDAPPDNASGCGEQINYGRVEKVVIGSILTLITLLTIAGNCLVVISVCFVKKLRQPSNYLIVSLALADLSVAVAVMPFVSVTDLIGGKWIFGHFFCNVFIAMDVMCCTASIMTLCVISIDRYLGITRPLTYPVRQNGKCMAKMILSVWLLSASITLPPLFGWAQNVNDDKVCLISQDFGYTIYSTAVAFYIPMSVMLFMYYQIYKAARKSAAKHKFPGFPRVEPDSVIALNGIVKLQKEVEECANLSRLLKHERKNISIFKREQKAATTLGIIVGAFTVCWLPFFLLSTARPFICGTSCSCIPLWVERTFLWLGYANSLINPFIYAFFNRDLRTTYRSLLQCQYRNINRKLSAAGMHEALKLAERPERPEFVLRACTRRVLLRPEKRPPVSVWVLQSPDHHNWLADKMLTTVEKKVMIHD
# Test: Radioligand binding, [125I]LSD, Flashplate
# Details: for inhibition at 1 µM: read-out: %-Inhib. (10^−6 M)
# Procedure: Radioligand binding assays were performed using the Cloned Human Serotonin Receptor, Subtype 7 (h5HT7), expressed in CHO cells, coated on Flashplate (Basic FlashPlate Cat.: SMP200) from PerkinElmer (Cat.: 6120512). The protocol assay was essentially the recommended protocol in the Technical Data Sheet by PerkinEmer Life and Analytical Sciences. The Mass membrane protein/well was typically 12 μg and the Receptor/well was about 9-10 fmoles. The Flashplate were let equilibrate at room temperature for one hour before the addition of the components of the assay mixture. The binding buffer was: 50 mM Tris-HCl, pH 7.4, containing 10 mM MgCl2, 0.5 mM EDTA and 0.5% BSA. The radioligand was [^125I]LSD at a final concentration of 0.82 nM. Nonspecific binding was determined with 50 μM of Clozapine. The assay volume was 25 μl. TopSeal-A were applied onto Flashplate microplates and they were incubated at room temperature for 240 minutes in darkness. The radioactivity were quantified by liquid scintillation spectrophotometry (Wallac 1450 Microbeta Trilux) with a count delay of 4 minutes prior to counting and a counting time of 30 seconds per well. Competition binding data were analyzed by using the LIGAND program (Munson and Rodbard, LIGAND: A versatile, computerized approach for characterization of ligand-binding systems. Anal. Biochem. 107: 220-239, 1980) and assays were performed in triplicate determinations for each point.
# [1] = compound at 10^−6 M, radioligand [125I]LSD 0.82 nM
# [2] = radioligand [125I]LSD 0.82 nM, triplicate determinations, read-out: IC50
inhibition at 1 µM [1] [%],IC50 [2] [nM],Structure (SMILES),IC50 [nM],inhibition at 1 µM [%]
,,CCOc1ccccc1N1CCN(Cc2c[nH]c3ccccc23)CC1 [3-((4-(2-ethoxyphenyl)piperazin-1-yl)methyl)-1H-indole],440,70
,,O=C(c1cccs1)C1CN2CCC1CC2 (stereo not drawn) [quinuclidin-3-yl(thiophen-2-yl)methanone],983,52.1
,,COc1ccc(C(C)C)cc1CN1CCN(c2cccc3[nH]ccc23)CC1 [4-(4-(5-isopropyl-2-methoxybenzyl)piperazin-1-yl)-1H-indole],28.7,76.6
85.3,314,"O=c1[nH]c2ccccc2n1C1=CCN(CCOc2ccccc2)CC1 [1-(1-(2-phenoxyethyl)-1,2,3,6-tetrahydropyridin-4-yl)-1H-benzo[d]imidazol-2(3H)-one]",,
65.7,1390,"COc1ccccc1N1CCN(CCC(=O)Nc2ccc3c(c2)CCC3)CC1 [N-(2,3-dihydro-1H-inden-5-yl)-3-(4-(2-methoxyphenyl)piperazin-1-yl)propanamide]",,
76.1,236,O=c1[nH]c2ccccc2n1C1CCN(CCOc2ccccc2)CC1 [1-(1-(2-phenoxyethyl)piperidin-4-yl)-1H-benzo[d]imidazol-2(3H)-one],,
78.5,139,COc1ccccc1N1CCN(CCC(O)c2ccccc2)CC1 (stereo not drawn) [3-(4-(2-methoxyphenyl)piperazin-1-yl)-1-phenylpropan-1-ol],,
82.5,,CC(C)Oc1ccccc1N1CCN(Cc2ccc(Cl)nc2)CC1 [1-((6-chloropyridin-3-yl)methyl)-4-(2-isopropoxyphenyl)piperazine],,

Structure (SMILES),inhibition at 1 µM [1] [%],IC50 [2] [nM],IC50 [nM],inhibition at 1 µM [%]
"CN(C)S(=O)(=O)c1ccc2[nH]cc(CCN)c2c1 [3-(2-aminoethyl)-N,N-dimethyl-1H-indole-5-sulfonamide]",,173,,84.3
"O=c1[nH]c2ccccc2n1C1=CCN(CCCOc2ccccc2)CC1 [1-(1-(3-phenoxypropyl)-1,2,3,6-tetrahydropyridin-4-yl)-1H-benzo[d]imidazol-2(3H)-one]",,1260,,67.6
CC(C)Oc1ccccc1N1CCN(Cc2ccc(-n3ccnc3)cc2)CC1 [1-(4-(1H-imidazol-1-yl)benzyl)-4-(2-isopropoxyphenyl)piperazine],,278,,74.3
